Reference: patent US4803209A, “Substituted 2,3-diphenyl-1,2-dihydroquinoxalines” (International Minerals & Chemical Corp., priority 1987, dated 1989)
Like-named read-outs stand apart in the source and are kept apart here.

What was measured:
[1] = tested on: Salmonella typhimurium; assay type: cell-based
[2] = tested on: antibiotic resistant E. coli (E.C. 324); assay type: cell-based; settings: Gram Neg., 6 h, 37° C., aerobic
[3] = tested on: E. coli strain 046 (E.C. 046); assay type: cell-based
[4] = tested on: Streptococcus sp. 1 X C15 (Strep C15); assay type: cell-based
[5] = tested on: Streptococcus sp. 1 X A7 (Strep A7); assay type: cell-based
[6] = tested on: Clostridium perfringens (Cp); assay type: cell-based; settings: Anaerobic, 6 h, 37° C.
[7] = tested on: Bacteroides fragilis (Bf); test: Antimicrobial growth inhibition, Bf; assay type: cell-based; settings: Anaerobic, 6 h, 37° C.
[8] = Growth promotion and feed utilization in chicks; assay type: in vivo, chicks (broiler cockerels); settings: 8 weeks
[9] = experiment set 1, 75 ppm in feed
[10] = experiment set 2, 50 ppm in feed
[11] = experiment set 3, 50 ppm in feed
[12] = experiment set 4, 50 ppm in feed
[13] = experiment set 5, 50 ppm in feed

Molecule	Growth of S.T. in the presence of the test compound ([1]; 6.4 ppm)	Growth of S.T. in the presence of the test compound ([1]; 64 ppm)	Growth of E.C. 324 in the presence of the test compound ([2]; 6.4 ppm)	Growth of E.C. 324 in the presence of the test compound ([2]; 64 ppm)	Growth of E.C. 046 in the presence of the test compound ([3]; 6.4 ppm)	Growth of E.C. 046 in the presence of the test compound ([3]; 64 ppm)	Growth of Strep C15 in the presence of the test compound ([4]; 6.4 ppm)	Growth of Strep C15 in the presence of the test compound ([4]; 64 ppm)	Growth of Strep A7 in the presence of the test compound ([5]; 6.4 ppm)	Growth of Strep A7 in the presence of the test compound ([5]; 64 ppm)	Growth of Cp in the presence of the test compound ([6]; 6.4 ppm)	Growth of Cp in the presence of the test compound ([6]; 64 ppm)	Growth of Bf in the presence of the test compound ([7]; 6.4 ppm)	Growth of Bf in the presence of the test compound ([7]; 64 ppm)	feed efficiency (% better or worse than control) [8, 9]	weight gain (% better or worse than control) [8, 9]	feed efficiency (% better or worse than control) [8, 11]	weight gain (% better or worse than control) [8, 11]	feed efficiency (% better or worse than control) [8, 12]	weight gain (% better or worse than control) [8, 12]	also measured
CCC[C@@H]1C[C@@H](C(=O)N[C@@H]([C@H]2O[C@H](SC)[C@H](O)[C@@H](O)[C@H]2O)[C@@H](C)O)N(C)C1 [Lincomycin]	+	+	+	+	+	+	-	-	-	-	+	+	-	-	12%	20%					
CC1(C)S[C@@H]2[C@H](NC(=O)Cc3ccccc3)C(=O)N2[C@H]1C(=O)O [Penicillin]	+	-	+	-	+	-	-	-	-	-	+	+	+	-	5.5%	20%	13%	35%	11%	19%	feed efficiency (% better or worse than control) [8, 10]: 32%; weight gain (% better or worse than control) [8, 10]: 40%; feed efficiency (% better or worse than control) [8, 13]: 21%; weight gain (% better or worse than control) [8, 13]: 50%
Gentamicin	-	-	+	-	+	-	-	-	-	-	+	+	-	-			15%	32%			
Polymyxin	-	-	-	-	-	-	-	-	+	-	+	+	+	-					6%	-3%	
